# How the values were obtained:
# [1] = test system: HCT116 p53+/+ colon cancer cells; assay: Proliferation assay (MTS, 96 h); format: cell-based, human; conditions: Homo sapiens, HCT-116; 96 h incubation, MTS; mean ±SD (3 experiments)
# Method: (§1) The human cancer cell types (neuroepithelioma (SK-N-MC), colon cancer (HCT116 with wild-type p53 (p53^+/+)), Burkitt's lymphoma (Raji) and cervical carcinoma (HeLa)) cells and normal human dermal fibroblasts (NHDF) were obtained from the American Type Culture Collection (ATCC, Manassas, VA, USA). HCT116 null p53 (p53^−/−) cells were obtained from the Maria Sklodowska-Curie Memorial Cancer Center and Institute of Oncology, Poland.
# (§2) The SK-N-MC cells were cultured in minimum essential medium (MEM; Life Technologies, Grand Island, New York, USA) containing 10% (v/v) fetal bovine serum (FBS; Life Technologies), 1 mM sodium pyruvate (Life Technologies), 1% (v/v) non-essential amino acids (Life Technologies), 2 mM L-glutamine (Life Technologies), 100 U/mL penicillin (Life Technologies), 100 µg/mL streptomycin (Life Technologies) and 0.28 µg/mL fungizone (Bristol Myers Squibb Pharmaceuticals, Montreal, Canada). The HCT116 and NHDF cells were grown in Dulbecco's modified Eagle's medium (DMEM; Sigma-Aldrich) supplemented with 12% (v/v) heat-inactivated FBS (HCT116; Life Technologies) or 15% (v/v) FBS (NHDF; Life Technologies), 100 µg/mL of gentamicin (Polfa Warszawa S.A., Warsaw, Poland), 100 µg/mL of streptomycin (Polfa) and 100 U/mL of penicillin (Polfa). The Raji and HeLa cells were cultured in Roswell Park Memorial Institute medium (RPMI-1640; Sigma-Aldrich) with the addition of 10% (v/v) heat-inactivated FBS (Life Technologies) and the supplements described for SK-N-MC cells above. All cell lines were cultured under standard conditions at 37°C in a humidified atmosphere at 5% CO2 and were subcultured every 3–4 days as required.
# (§3) The cells were seeded in 96-well plates (SK-N-MC: 1.5×10^4 cells/well; HeLa: 5.0×10^3 cells/well; Raji: 3.0×10^3 cells/well; HCT116: 3.5×10^3 cells/well; NHDF: 3.0×10^3 cells/well) 24 h prior to the addition of the novel compounds. The assays were performed using a 72 h (SK-N-MC, Raji, HeLa) or 96 h (HCT 116, NHDF) incubation period with the agents at 37°C. […] Additionally, DFO and Dp44mT were included as positive controls in all experiments as their activity is well characterized, [42], [50].
# (§4) Chelator stock solutions were prepared in DMSO and diluted in media so that the final [DMSO] <0.05%. The results were expressed as a percentage of the control and the resulting IC50 values were calculated using GraphPad Prism 5 (GraphPad Software, Inc., La Jolla, CA, USA). The IC50 was defined as the concentration necessary to reduce the absorbance to 50% of the untreated control. Each individual compound was tested in triplicate in a single experiment, with each experiment being repeated three times. After incubation of HCT 116 and NHDF cells with the tested compounds, 20 µL of the CellTiter 96 Aqueous One Solution - MTS (Promega, Madison, WI, USA) solution was added to each well (with 100 µL of DMEM without phenol red) and incubated for 1 h/37°C. The optical density of the samples was analyzed at 490 nm.
# [2] = test system: HCT116 p53−/− colon cancer cells; assay: Proliferation assay (MTS, 96 h); format: cell-based, human; conditions: Homo sapiens, HCT-116, 96 h, 96 h incubation, MTS; mean ±SD (3 experiments)
# Method: as §1, §2, §3, §4
# [3] = test system: HeLa cervical carcinoma cells; assay: Proliferation assay (crystal violet, 72 h); format: cell-based; conditions: Homo sapiens, 72 h incubation, mean ±SD (3 experiments)
# Method: as §1, §2, §3, §4
# (§5) MTT (3-[4,5-dimethylthiazol-2-yl]-2,5-diphenyltetrazolium bromide) was used to evaluate the anti-proliferative effects of the chelators in SK-N-MC and Raji cells. Following incubation with the investigated compounds, 10 µL of MTT (5 mg/mL in PBS; Sigma-Aldrich) was added to each well. After a 2 h (SK-N-MC) or 4 h (Raji) incubation, the plates were centrifuged, and the cells were lysed with 100 µL of 10% SDS-50% isobutanol in 0.01 M HCl (SK-N-MC) or DMSO (Raji). The absorbance was measured at 570 nm. The anti-proliferative effects of these novel agents on HeLa cells were estimated using crystal violet staining (0.5% crystal violet solution for 10 min). Finally, the wells were rinsed with water and the cells were lysed with 2% SDS. The optical density of the samples was analyzed at 595 nm.
# [4] = test system: SK-N-MC neuroepithelioma cells; assay: Proliferation assay (MTT, 72 h); format: cell-based; conditions: Homo sapiens, 72 h incubation, mean ±SD (3 experiments)
# Method: as §1, §2, §3, §4, §5
# [5] = test system: Raji Burkitt's lymphoma cells; assay: Proliferation assay (MTT, 72 h); format: cell-based; conditions: Homo sapiens, 72 h incubation, mean ±SD (3 experiments)
# Method: as §1, §2, §3, §4, §5
# [6] = test system: SK-N-MC cells; assay: Inhibition of cellular 59Fe uptake from 59Fe2-Tf; format: cell-based, human; conditions: chelator 25 µM
# Method: (§6) The iron transport protein, Tf (Sigma-Aldrich), was labeled with ^59Fe (PerkinElmer Life and Analytical Sciences, Boston, MA) to form ^59Fe2-Tf using standard methods, [7]. Unbound ^59Fe was removed by passage through a Sephadex G25 column and was followed by exhaustive dialysis, [7].
# The ability of the chelators to prevent the cellular uptake of ^59Fe from ^59Fe2-Tf was examined using standard methods, [14], [17], [18], [50]. A monolayer of SK-N-MC cells was incubated with medium containing ^59Fe2-Tf (0.75 µM) and the chelator (25 µM) for 3 h at 37°C. The medium was then removed and the cells were washed four times with ice-cold PBS. The cells were then incubated for 30 min at 4°C with the general protease, Pronase (1 mg/mL; Sigma-Aldrich), to remove membrane-bound ^59Fe. The cells were removed using a plastic spatula and centrifuged at 14,000 rpm/1 min to separate internalized from membrane-bound ^59Fe. The cell pellet was resuspended in 1 mL of PBS and the internalized ^59Fe was measured on a γ-scintillation counter. Internalized ^59Fe uptake was calculated as a percentage of the control (medium alone). Again, the novel ligands were compared to DFO and Dp44mT as their ability to inhibit cellular ^59Fe uptake has been extensively characterized using SK-N-MC cells, [14], [17], [18], [50].
# Figure 8 Effect of (A) series 1, (B) series 2, (C) series 3, (D) series 4, (E) series 5 and (F) series 6 chelators, relative to the controls DFO and Dp44mT, on ^59Fe uptake from ^59Fe-transferrin by SK-N-MC cells. Cells were incubated for 3 h/37°C with ^59Fe-transferrin (0.75 µM) in the presence or absence of the chelators (25 µM). At the end of this incubation, cells were washed 4 times with ice-cold PBS. Internalization of ^59Fe was assessed by incubation for 30 min/4°C with the protease, Pronase (1 mg/mL). Cellular ^59Fe was then assessed using a γ-scintillation counter. Results are mean ±SD (3 experiments).
# [7] = test system: SK-N-MC cells; assay: Mobilization of cellular 59Fe (59Fe efflux); format: cell-based, human; conditions: chelator 25 µM; for 59Fe mobilization (% of cellular 59Fe released): 3 h/37°C, prelabeled SK-N-MC cells, control medium 4±1%
# Method: as §6
# To examine the ability of the novel chelators to mobilize ^59Fe from SK-N-MC cells, ^59Fe efflux experiments were performed using established techniques, [51]. The monolayer of SK-N-MC cells was prelabeled for 3 h at 37°C in MEM containing ^59Fe2-Tf (0.75 µM). Cells were then washed four times with ice-cold PBS and incubated for a further 3 h at 37°C with medium alone (the control) or medium containing the chelator (25 µM). After this incubation, the overlying medium that contained the released ^59Fe was separated from the cells using a Pasteur pipette. Radioactivity was measured in both the cells and supernatant using a γ-scintillation counter (Wallac Wizard 3, Turku, Finland). In these studies, the novel ligands were compared to the previously characterized chelators, DFO and Dp44mT, as their ability to mobilize cellular ^59Fe has been extensively examined in these cells, [12], [17], [18], [50].
# Figure 6 Effect of (A) series 1, (B) series 2, (C) series 3, (D) series 4, (E) series 5 and (F) series 6 chelators, relative to the controls DFO and Dp44mT, on ^59Fe mobilization from prelabeled SK-N-MC cells. Cells were incubated for 3 h/37°C with ^59Fe-transferrin (0.75 µM), washed 4 times with ice-cold PBS and then reincubated for 3 h/37°C in the presence or absence of the chelators (25 µM). Release of ^59Fe was then assessed using a γ-scintillation counter. Results are mean ±SD (3 experiments).
# [8] = test system: normal human dermal fibroblast (NHDF) cells; assay: Proliferation assay (MTS, 96 h), normal mortal cells; format: cell-based; conditions: Homo sapiens, NHDF, 96 h, 96 h incubation, mean ±SD (3 experiments)
# Method: as §1, §2, §3, §4
# [9] = set-up: method as in PMID 17851637, PMID 18217206, PMID 15148626; conditions: clinical trials; cited from earlier work
SMILES,IC50 [1] [µM],IC50 [2] [µM],IC50 [3] [µM],IC50 [4] [µM],IC50 [5] [µM],"Internalized 59Fe uptake from 59Fe2-Tf (% of the control) ([6]; 59Fe2-Tf 0.75 µM, 3 h/37°C)",59Fe mobilization (% of cellular 59Fe released) [7],IC50 [8] [µM],Inhibition of 59Fe uptake compared with controls [6],59Fe mobilization efficacy compared with controls ([7]; SK-N-MC cells),melting point [°C],Side effects upon administration [9]
S=C(NN=C(c1ccccn1)c1ccccn1)N1CCOCC1 [1c],0.014 ± 0.005,0.014 ± 0.006,2.21 ± 0.47,1.21 ± 0.35,0.003 ± 0.004,3.6–11.5%,31–39%,0.016 ± 0.006,,,,
S=C(N/N=C/c1ccc2ccccc2n1)N1CCN(c2ccccn2)CC1 [2d],0.39 ± 0.15,0.27 ± 0.16,5.14 ± 2.87,0.52 ± 0.16,0.05 ± 0.02,,,0.032 ± 0.008,comparable inhibition of ^59Fe uptake to that of DFO,comparable release of ^59Fe relative to DFO,,
CCN1CCN(C(=S)N/N=C/c2c(O)ccc3cccnc23)CC1 [4a],20.2 ± 0.3,20.3 ± 0.9,11.3 ± 1.6,5.09 ± 0.47,3.35 ± 1.11,,31–39%,12.1 ± 4.2,,,,
Oc1ccc2cccnc2c1/C=N/NC(=S)N1CCOCC1 [4c],20.1 ± 0.3,19.8 ± 4.9,10.2 ± 1.2,4.97 ± 0.95,3.53 ± 1.87,,31–39%,> 25,,,,
Oc1ccccc1/C=N/NC(=S)N1CCN(c2ccccc2)CC1 [6b],6.9 ± 2.3,8.86 ± 1.46,5.8 ± 0.48,5.13 ± 0.51,1.96 ± 0.85,,,13.5 ± 4.8,,,206 to 207,
"NC(=S)NN=Cc1ncccc1N [Triapine, 3-aminopyridine-2-carboxaldehyde thiosemicarbazone]",,,,,,,,,,,,methemoglobin formation and hypoxia

# — article PMC4199632, “Exploring the Anti-Cancer Activity of Novel Thiosemicarbazones Generated through the Combination of Retro-Fragments: Dissection of Critical Structure-Activity Relationships” (PLoS ONE, 2014)
